Patent US6403573B1, “Compounds of azetidine and pyrrolidin” (Akzo Nobel N.V., priority 2000, dated 2002)

Experiments:
DRL-72 test = format: in vivo, rats
From the text: This test, carried out according to the protocol of Andrews et al [“Effects of imipramine and mirtazapine on operant performance in rats”—Drug Development Research 32: 58-66 (1994)], gives an indication of potential antidepressant-like activity.

5HT2C receptors = target: T1, 5HT2C receptors (Rattus norvegicus, UniProt P08909); test: Penile erection test; format: in vivo, rats
T1 construct: from tissue; host or cells: living rats (in vivo)
T1 sequence (P08909 33-460): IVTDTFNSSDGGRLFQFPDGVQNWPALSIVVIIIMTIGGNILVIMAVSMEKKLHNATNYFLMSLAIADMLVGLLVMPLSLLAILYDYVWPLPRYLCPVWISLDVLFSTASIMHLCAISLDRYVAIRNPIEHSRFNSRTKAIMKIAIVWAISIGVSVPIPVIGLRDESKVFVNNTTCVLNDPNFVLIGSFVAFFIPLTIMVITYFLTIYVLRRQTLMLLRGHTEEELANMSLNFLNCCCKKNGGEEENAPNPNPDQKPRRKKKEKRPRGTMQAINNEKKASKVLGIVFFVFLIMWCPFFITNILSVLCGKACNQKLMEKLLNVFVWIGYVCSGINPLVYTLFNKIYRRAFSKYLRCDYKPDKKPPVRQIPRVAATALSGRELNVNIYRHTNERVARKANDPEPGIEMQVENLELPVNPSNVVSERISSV
From the text: This test, carried out according to the protocol of Berendsen et al [“Involvement of 5-HT1C receptors in drug-induced penile erections in rats”—Psychopharmacology 101: 57-61(1990)] enables the potential in vivo activity at 5HT2C receptors to be assessed.

5-HT2C receptors = target: T2, 5-HT2C receptors (Homo sapiens, UniProt P28335); test: Binding test, displacement of [3H]-mesulergine, cloned human receptors expressed in 3T3 cells
T2 construct: expressed in transfected cells; host or cells: 3T3 cells
T2 sequence (P28335 33-458): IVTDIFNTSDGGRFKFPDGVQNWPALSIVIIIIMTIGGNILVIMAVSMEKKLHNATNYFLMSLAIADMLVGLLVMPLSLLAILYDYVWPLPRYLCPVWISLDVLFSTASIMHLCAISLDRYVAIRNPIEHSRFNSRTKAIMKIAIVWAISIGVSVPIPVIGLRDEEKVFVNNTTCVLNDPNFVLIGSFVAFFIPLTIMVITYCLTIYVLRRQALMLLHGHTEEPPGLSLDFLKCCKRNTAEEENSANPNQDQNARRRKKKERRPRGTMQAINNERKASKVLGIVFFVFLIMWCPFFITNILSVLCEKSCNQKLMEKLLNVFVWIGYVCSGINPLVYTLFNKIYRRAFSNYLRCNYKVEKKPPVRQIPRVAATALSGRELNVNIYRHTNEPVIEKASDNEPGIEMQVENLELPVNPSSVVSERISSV
Procedure: The tests are carried out using cloned human receptors expressed in 3T3 cells according to the protocols described in Stam et at “Genomic organization, coding sequence and functional expression of human 5-HT2 and 5-HT1A receptor genes”—European Journal of Pharmacology—Molecular Pharmacology Section 227: 153-162 (1993) and Stam et al “Genomic organisation and functional expression of the gene encoding the human serotonin 5-HT2C receptor”—European Journal of Pharmacology—Molecular Pharmacology Section 269: 339-348 (1994).

melting point [°C] | Compound | further results
174 | COc1ccc2c(c1O[C@@H]1CCNC1)CCC2.Cl | 
65 | Cl.c1cc2c(c(OC3CNC3)c1)CCC2 | 
187 | Cl.c1cc2c(c(OC3CNC3)c1)CCCC2 | 
164 | COc1ccc2c(c1OC1CNC1)CCCC2.Cl | 
> 250 | Cl.c1cc2c(c(OC3CNC3)c1)NCCC2 | 
188 | Cl.Clc1ccc2c(c1OC1CNC1)CCC2 | 
180 | Cc1ccc(OC2CNC2)c2ccccc12.Cl | 
170 | CC1CCc2c(OC3CNC3)cc(F)cc21.Cl (centres unmarked) | 

Further lines, the compound ahead of its results:

Compound | melting point [°C] | further results
Cc1ccc2ccccc2c1OC1CNC1.Cl | 171 | 
Cl.c1ccc2c(OC3CNC3)cccc2c1 | 292 | 
COc1ccc(OC2CNC2)c2ccccc12.Cl | 198 | 
Cl.c1ccc2cc(OC3CNC3)ccc2c1 | 168 | 
Cl.Clc1cc(Cl)c2ccccc2c1OC1CNC1 | 187 | 
Cl.c1cc(OC2CNC2)c2ccsc2c1 | 203 | 
Cl.Cl.c1cc(OC2CNC2)c2ccncc2c1 | 198 | 
Cl.c1ccc2c(SC3CNC3)cccc2c1 | 159 | 
COCc1ccc2ccccc2c1OC1CNC1.Cl | 127 | 
COc1ccc2c(c1OC1CCNC1)CCC2.Cl (racemic) [Compound 10b, (rac)-3-[(2,3-Dihydro-5-methoxy-1H-inden-4-yl)oxy] pyrrolidine hydrochloride] | 154 | Increase in pellets earned in DRL-72 (MED) (DRL-72 test): 10 mg/kg; Erection of the penis (MED) (5HT2C receptors): 1 mg/kg
Cl.c1ccc2c(OC3CCNC3)cccc2c1 (racemic) [Compound 10c, (rac)-3-[(1-Naphtalenyl)oxy]pyrrolidine hydrochloride] |  | selective effect on 5-HT2C receptors in the central nervous system (5-HT2C receptors): selective effect on 5-HT2C receptors
COc1ccc2c(c1OC1CNC1)CCC2.Cl [Compound 5d, 3-[(2,3-Dihydro-5-methoxy-1H-inden-4-yl)oxy]-azetidine hydrochloride] | 166 | Increase in pellets earned in DRL-72 (MED) (DRL-72 test): 10 mg/kg; Erection of the penis (MED) (5HT2C receptors): 1 mg/kg
COc1ccc2c(c1O[C@H]1CCNC1)CCC2.Cl [Compound 9a, (S)-(+)-3-[(2,3-Dihydro-5-methoxy-1H-inden-4-yl)oxy]-pyrrolidine Hydrochloride] | 176 | Increase in pellets earned in DRL-72 (MED) (DRL-72 test): 3 mg/kg; Erection of the penis (MED) (5HT2C receptors): 0.46 mg/kg
Cl.c1cc2c(c(OC3CCNC3)c1)CCCC2 (centres unmarked) [Compound 9b, 3-[(5,6,7,8-Tetrahydro-1-naphthalenyl)oxy]-pyrrolidine hydrochloride] | 207 | selective effect on 5-HT2C receptors in the central nervous system (5-HT2C receptors): selective effect on 5-HT2C receptors
